Values after ≈ are worked out from the molar mass of the structure shown.
What was measured:
Candida albicans [1] = assay: Fungicidal activity against Candida albicans ATCC 10231 isolated from human after 72 hrs by microdilution method; format: functional
Micrococcus flavus [2] = assay: Antibacterial activity against Micrococcus flavus ATCC 10240 after 24 hrs by microdilution method; format: functional; conditions: ATCC 10240, 24 h
Aspergillus ochraceus [3] = assay: Fungicidal activity against Aspergillus ochraceus ATCC 12066 after 72 hrs by microdilution method; format: functional
Staphylococcus aureus [4] = assay: Bactericidal activity against Staphylococcus aureus ATCC 6538 after 72 hrs by microdilution method; format: functional
Trichoderma viride [5] = assay: Antifungal activity against Trichoderma viride IAM 5061 after 72 hrs by microdilution method; format: functional; conditions: IAM 5061, 72 h
Staphylococcus aureus [6] = assay: Antibacterial activity against Staphylococcus aureus ATCC 6538 after 24 hrs by microdilution method; format: functional; conditions: ATCC 6538, 24 h
Listeria monocytogenes [7] = assay: Bactericidal activity against Listeria monocytogenes NCTC 7973 after 72 hrs by microdilution method; format: functional
Talaromyces funiculosus [8] = assay: Antifungal activity against Penicillium funiculosum ATCC 36839 after 72 hrs by microdilution method; format: functional; conditions: ATCC 36839, 72 h
Salmonella typhimurium [9] = assay: Antibacterial activity against Salmonella typhimurium ATCC 13311 after 24 hrs by microdilution method; format: functional, Salmonella enterica subsp. enterica serovar Typhimurium; conditions: Salmonella enterica, ATCC 13311, 24 h
Micrococcus flavus [10] = assay: Bactericidal activity against Micrococcus flavus ATCC 10240 after 72 hrs by microdilution method; format: functional
Penicillium ochrochloron [11] = assay: Antifungal activity against Penicillium ochrochloron ATCC 9112 after 72 hrs by microdilution method; format: functional; conditions: ATCC 9112, 72 h
Aspergillus versicolor [12] = assay: Fungicidal activity against Aspergillus versicolor ATCC 11730 after 72 hrs by microdilution method; format: functional
Aspergillus versicolor [13] = assay: Antifungal activity against Aspergillus versicolor ATCC 11730 after 72 hrs by microdilution method; format: functional; conditions: ATCC 11730, 72 h
Aspergillus niger [14] = assay: Antifungal activity against Aspergillus niger ATCC 6275 after 72 hrs by microdilution method; format: functional; conditions: ATCC 6275, 72 h
Pseudomonas aeruginosa [15] = assay: Antibacterial activity against Pseudomonas aeruginosa ATCC 27853 after 24 hrs by microdilution method; format: functional; conditions: ATCC 27853, 24 h
Enterobacter cloacae [16] = assay: Antibacterial activity against Enterobacter cloacae ATCC 35030 isolated from human after 24 hrs by microdilution method; format: functional; conditions: ATCC 35030, 24 h
Bacillus cereus [17] = assay: Bactericidal activity against Bacillus cereus clinical isolate after 72 hrs by microdilution method; format: functional
Aspergillus ochraceus [18] = assay: Antifungal activity against Aspergillus ochraceus ATCC 12066 after 72 hrs by microdilution method; format: functional; conditions: ATCC 12066, 72 h
Escherichia coli [19] = assay: Antibacterial activity against Escherichia coli ATCC 35210 after 24 hrs by microdilution method; format: functional; conditions: ATCC 35210, 24 h
Talaromyces funiculosus [20] = assay: Fungicidal activity against Penicillium funiculosum ATCC 36839 after 72 hrs by microdilution method; format: functional
Listeria monocytogenes [21] = assay: Antibacterial activity against Listeria monocytogenes NCTC 7973 after 24 hrs by microdilution method; format: functional; conditions: NCTC 7973, 24 h
Candida albicans [22] = assay: Antifungal activity against Candida albicans ATCC 10231 isolated from human after 72 hrs by microdilution method; format: functional; conditions: ATCC 10231, 72 h
Aspergillus niger [23] = assay: Fungicidal activity against Aspergillus niger ATCC 6275 after 72 hrs by microdilution method; format: functional
Salmonella typhimurium [24] = assay: Bactericidal activity against Salmonella typhimurium ATCC 13311 after 72 hrs by microdilution method; format: functional, Salmonella enterica subsp. enterica serovar Typhimurium
Aspergillus fumigatus [25] = assay: Fungicidal activity against Aspergillus fumigatus isolated from human after 72 hrs by microdilution method; format: functional
Enterobacter cloacae [26] = assay: Bactericidal activity against Enterobacter cloacae ATCC 35030 isolated from human after 72 hrs by microdilution method; format: functional
Escherichia coli [27] = assay: Bactericidal activity against Escherichia coli ATCC 35210 after 72 hrs by microdilution method; format: functional
Bacillus cereus [28] = assay: Antibacterial activity against Bacillus cereus clinical isolate after 24 hrs by microdilution method; format: functional
Penicillium ochrochloron [29] = assay: Fungicidal activity against Penicillium ochrochloron ATCC 9112 after 72 hrs by microdilution method; format: functional
Aspergillus fumigatus [30] = assay: Antifungal activity against Aspergillus fumigatus isolated from human after 72 hrs by microdilution method; format: functional
Pseudomonas aeruginosa [31] = assay: Bactericidal activity against Pseudomonas aeruginosa ATCC 27853 after 72 hrs by microdilution method; format: functional
Trichoderma viride [32] = assay: Fungicidal activity against Trichoderma viride IAM 5061 after 72 hrs by microdilution method; format: functional
Aspergillus flavus [33] = assay: Antifungal activity against Aspergillus flavus ATCC 9643 after 72 hrs by microdilution method; format: functional; conditions: ATCC 9643, 72 h
Aspergillus flavus [34] = assay: Fungicidal activity against Aspergillus flavus ATCC 9643 after 72 hrs by microdilution method; format: functional

Row | MIC (Micrococcus flavus [2]) [µM] | MIC (Trichoderma viride [5]) [µM] | MIC (Staphylococcus aureus [6]) [µM] | MIC (Talaromyces funiculosus [8]) [µM] | MIC (Salmonella typhimurium [9]) [µM] | MIC (Penicillium ochrochloron [11]) [µM] | MIC (Aspergillus niger [14]) [µM] | MIC (Aspergillus ochraceus [18]) [µM] | MIC (Candida albicans [22]) [µM] | MIC (Aspergillus fumigatus [30]) [µM] | Structure (SMILES) | MFC99.5 (Candida albicans [1]) [×10⁻² umol/ml] | MFC99.5 (Aspergillus ochraceus [3]) [×10⁻² umol/ml] | MBC99.5 (Staphylococcus aureus [4]) [×10⁻² umol/ml] | MBC99.5 (Listeria monocytogenes [7]) [×10⁻² umol/ml] | MBC99.5 (Micrococcus flavus [10]) [×10⁻² umol/ml] | MFC99.5 (Talaromyces funiculosus [20]) [×10⁻² umol/ml] | MFC99.5 (Aspergillus niger [23]) [×10⁻² umol/ml] | MFC99.5 (Aspergillus fumigatus [25]) [×10⁻² umol/ml] | MFC99.5 (Penicillium ochrochloron [29]) [×10⁻² umol/ml] | MFC99.5 (Trichoderma viride [32]) [×10⁻² umol/ml] | further results
1 | 105 (≈ 40.2 µg/mL) | 131 (≈ 50.2 µg/mL) | 105 (≈ 40.2 µg/mL) | 262 (≈ 100 µg/mL) | 152 (≈ 58.2 µg/mL) | 131 (≈ 50.2 µg/mL) | 131 (≈ 50.2 µg/mL) | 131 (≈ 50.2 µg/mL) | 157 (≈ 60.1 µg/mL) | 131 (≈ 50.2 µg/mL) | CNc1nc(C)c(C2=NN(c3ccccc3)C(c3ccc(Cl)cc3)C2)s1 (centres undefined) | 26.2 | 15.7 | 21 | 10.5 | 21 | 36.7 | 26.2 | 26.2 | 15.7 | 21 | MFC99.5 (Aspergillus versicolor [12]): 21 ×10⁻² umol/ml; MIC (Aspergillus versicolor [13]): 131 µM (≈ 50.2 µg/mL); MIC (Pseudomonas aeruginosa [15]): 152 µM (≈ 58.2 µg/mL); MIC (Enterobacter cloacae [16]): 131 µM (≈ 50.2 µg/mL); MBC99.5 (Bacillus cereus [17]): 31.4 ×10⁻² umol/ml; MIC (Escherichia coli [19]): 183 µM (≈ 70.1 µg/mL); MIC (Listeria monocytogenes [21]): 52 µM (≈ 19.9 µg/mL); MBC99.5 (Salmonella typhimurium [24]): 18.3 ×10⁻² umol/ml; MBC99.5 (Enterobacter cloacae [26]): 18.3 ×10⁻² umol/ml; MBC99.5 (Escherichia coli [27]): 21 ×10⁻² umol/ml; MIC (Bacillus cereus [28]): 157 µM (≈ 60.1 µg/mL); MBC99.5 (Pseudomonas aeruginosa [31]): 31.4 ×10⁻² umol/ml
2 | 106 (≈ 40.1 µg/mL) | 132 (≈ 50 µg/mL) | 106 (≈ 40.1 µg/mL) | 264 (≈ 99.9 µg/mL) | 185 (≈ 70 µg/mL) | 264 (≈ 99.9 µg/mL) | 132 (≈ 50 µg/mL) | 132 (≈ 50 µg/mL) | 264 (≈ 99.9 µg/mL) | 264 (≈ 99.9 µg/mL) | CNc1nc(C)c(C2=NN(c3ccccc3)C(c3ccc(OC)cc3)C2)s1 (centres undefined) | 37 | 13.2 | 15.8 | 10.6 | 15.8 | 37 | 26.4 | 37 | 37 | 13.2 | MFC99.5 (Aspergillus versicolor [12]): 21.1 ×10⁻² umol/ml; MIC (Aspergillus versicolor [13]): 132 µM (≈ 50 µg/mL); MIC (Pseudomonas aeruginosa [15]): 158 µM (≈ 59.8 µg/mL); MIC (Enterobacter cloacae [16]): 132 µM (≈ 50 µg/mL); MBC99.5 (Bacillus cereus [17]): 26.4 ×10⁻² umol/ml; MIC (Escherichia coli [19]): 185 µM (≈ 70 µg/mL); MIC (Listeria monocytogenes [21]): 53 µM (≈ 20.1 µg/mL); MBC99.5 (Salmonella typhimurium [24]): 26.4 ×10⁻² umol/ml; MBC99.5 (Enterobacter cloacae [26]): 18.5 ×10⁻² umol/ml; MBC99.5 (Escherichia coli [27]): 21.1 ×10⁻² umol/ml; MIC (Bacillus cereus [28]): 158 µM (≈ 59.8 µg/mL); MBC99.5 (Pseudomonas aeruginosa [31]): 26.4 ×10⁻² umol/ml
3 | 33.7 (≈ 10 µg/mL) | 25.2 (≈ 7.49 µg/mL) | 84.1 (≈ 25 µg/mL) | 33.7 (≈ 10 µg/mL) | 33.7 (≈ 10 µg/mL) | 33.7 (≈ 10 µg/mL) | 50.5 (≈ 15 µg/mL) | 33.7 (≈ 10 µg/mL) | 33.7 (≈ 10 µg/mL) | 50.5 (≈ 15 µg/mL) | CNc1nc(C)c(-c2cc(-c3ccccc3)nc(N)n2)s1 | 6.74 | 6.74 | 10.1 | 11.81 | 8.41 | 6.74 | 6.74 | 6.74 | 5.05 | 3.37 | MIC (Aspergillus flavus [33]): 50.5 µM (≈ 15 µg/mL); MIC (Pseudomonas aeruginosa [15]): 33.7 µM (≈ 10 µg/mL); MIC (Enterobacter cloacae [16]): 67.4 µM (≈ 20 µg/mL); MBC99.5 (Bacillus cereus [17]): 6.74 ×10⁻² umol/ml; MIC (Escherichia coli [19]): 33.7 µM (≈ 10 µg/mL); MIC (Listeria monocytogenes [21]): 101 µM (≈ 30 µg/mL); MBC99.5 (Salmonella typhimurium [24]): 6.74 ×10⁻² umol/ml; MBC99.5 (Enterobacter cloacae [26]): 8.41 ×10⁻² umol/ml; MFC99.5 (Aspergillus flavus [34]): 6.74 ×10⁻² umol/ml; MBC99.5 (Escherichia coli [27]): 6.74 ×10⁻² umol/ml; MIC (Bacillus cereus [28]): 33.7 µM (≈ 10 µg/mL); MBC99.5 (Pseudomonas aeruginosa [31]): 6.74 ×10⁻² umol/ml

Row | Structure (SMILES) | MIC (Micrococcus flavus [2]) [µM] | MIC (Trichoderma viride [5]) [µM] | MIC (Staphylococcus aureus [6]) [µM] | MIC (Talaromyces funiculosus [8]) [µM] | MIC (Salmonella typhimurium [9]) [µM] | MIC (Penicillium ochrochloron [11]) [µM] | MIC (Aspergillus niger [14]) [µM] | MIC (Aspergillus ochraceus [18]) [µM] | MIC (Candida albicans [22]) [µM] | MIC (Aspergillus fumigatus [30]) [µM] | MFC99.5 (Candida albicans [1]) [×10⁻² umol/ml] | MFC99.5 (Aspergillus ochraceus [3]) [×10⁻² umol/ml] | MBC99.5 (Staphylococcus aureus [4]) [×10⁻² umol/ml] | MBC99.5 (Listeria monocytogenes [7]) [×10⁻² umol/ml] | MBC99.5 (Micrococcus flavus [10]) [×10⁻² umol/ml] | MFC99.5 (Talaromyces funiculosus [20]) [×10⁻² umol/ml] | MFC99.5 (Aspergillus niger [23]) [×10⁻² umol/ml] | MFC99.5 (Aspergillus fumigatus [25]) [×10⁻² umol/ml] | MFC99.5 (Penicillium ochrochloron [29]) [×10⁻² umol/ml] | MFC99.5 (Trichoderma viride [32]) [×10⁻² umol/ml] | further results
4 | CC(=O)N1CCN(c2ccc(OCC3COC(Cn4ccnc4)(c4ccc(Cl)cc4Cl)O3)cc2)CC1 (centres undefined) [KETOCONAZOLE] | – | 4750 (≈ 2520 µg/mL) | – | 380 (≈ 202 µg/mL) | – | 3800 (≈ 2020 µg/mL) | 380 (≈ 202 µg/mL) | 380 (≈ 202 µg/mL) | 376 (≈ 200 µg/mL) | 380 (≈ 202 µg/mL) | 94 | 95 | – | – | – | 95 | 95 | 95 | 380 | 570 | MIC (Aspergillus flavus [33]): 2850 µM (≈ 1510 µg/mL); MFC99.5 (Aspergillus versicolor [12]): 380 ×10⁻² umol/ml; MIC (Aspergillus versicolor [13]): 2850 µM (≈ 1510 µg/mL); MFC99.5 (Aspergillus flavus [34]): 380 ×10⁻² umol/ml

From ChEMBL document CHEMBL3585344, “Thiazole-based aminopyrimidines and N-phenylpyrazolines as potent antimicrobial agents: synthesis and biological evaluation” (2014)
